pIC50: −log10 of the molar value. Like-named read-outs stand apart in the source and are kept apart here.
Assays:
[1] = biological target: T1, muscarinic receptors (M1 -site, pirenzepine sensitive site) (Rattus norvegicus, UniProt P08482); assay: inhibition of ^3 HPRZ (pirenzepine, [N-methyl-^3 H]) binding to rat cerebral cortex membranes; set-up: species or system rat (male Wistar
T1 construct: from tissue; host or cells: cerebral cortex membranes of male Wistar rats
T1 sequence (P08482 1-460): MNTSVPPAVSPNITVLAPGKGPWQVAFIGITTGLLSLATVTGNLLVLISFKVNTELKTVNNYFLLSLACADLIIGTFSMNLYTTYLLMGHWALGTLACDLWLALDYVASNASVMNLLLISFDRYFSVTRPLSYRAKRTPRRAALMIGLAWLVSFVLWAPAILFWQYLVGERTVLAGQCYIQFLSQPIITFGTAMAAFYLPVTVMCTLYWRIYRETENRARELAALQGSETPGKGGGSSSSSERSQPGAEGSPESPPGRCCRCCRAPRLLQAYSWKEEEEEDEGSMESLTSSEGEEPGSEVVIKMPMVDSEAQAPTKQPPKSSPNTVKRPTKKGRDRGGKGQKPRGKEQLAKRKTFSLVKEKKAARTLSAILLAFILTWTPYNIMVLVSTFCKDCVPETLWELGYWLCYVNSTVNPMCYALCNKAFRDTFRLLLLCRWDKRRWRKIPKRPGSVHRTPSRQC
Protocol: Furthermore the pharmacological properties of the compounds of the invention can also be illustrated by determining their capability to inhibit ^3 HPRZ (pirenzepine, [N-methyl-^3 H]) binding to rat cerebral cortex membranes.
Pirenzepine binds selectively to subtype of muscarinic receptors. Historically the type is named the M1 -site, whereas pirenzepine sensitive site would be more appropriate.
(§1) All preparations are performed at 0°-4° C. unless otherwise indicated. Fresh cortex (0.1-19) from male Wistar rats (150-200 g) is homogenized for 5-10 s in 10 mL 20 mM Hepes pH: 7.4, with an Ultra-Turrax homogenizer. The homogenizer is rinsed with 2×10 mL of buffer and the combined suspension centrifuged for 15 min. at 40,000×g. The pellet is washed three times with buffer. In each step the pellet is homogenized as before in 3×10 mL of buffer and centrifuged for 10 min. at 40,000×g.
The final pellet is homogenized in 20 mM Hepes pH: 7.4 (100 mL per g of original tissue) and used for binding assay. Aliquots of 0.5 mL is added 20 μl of test solution and 25 μL of ^3 HPRZ (1.0 nM, final conc.), mixed and incubated for 60 min. at 20° C. Non-specific binding is determined in triplicate using atropine (1 ,μg/mL, final conc.) as the test substance. After incubation samples are added 5 mL of ice-cold buffer and poured directly onto Whatman GF/C glass fiber filters under suction and immediately washed 2 times with 5 mL of ice-cold buffer. The amount of radioactivity on the filters are determined by conventional liquid scintillation counting. Specific binding is total binding minus non-specific binding.
Test substances are dissolved in 10 mL water, at a concentration of 0.22 mg/mL.
(§2) The test value will be given as IC50 (the concentration (nM) of the test substance which inhibits the specific binding of ^3 HPRZ by 50%). IC50 =(applied test substance concentration) x(Cx /Co -Cx)nM where Co is specific binding in control assays and Cx is the specific binding in the test assay. (The calculations assume normal mass-action kinetics).

[2] = biological target: muscarinic acetylcholine receptors; assay: inhibition of specific binding of ^3 H-Oxotremorine-M (^3 H-Oxo); set-up: species or system rat (male Wistar; details: ^3 H-Oxotremorine 1.0 nM, rat cortex, 30 min. at 25° C.
Source text: The pharmacological properties of the compounds of the invention can be illustrated by determining their capability to inhibit the specific binding of ^3 H-Oxotremorine-M (^3 H-Oxo). Birdsdall N. J. M., Hulme E. C., and Burgen A. S. V. (1980). "The Character of Muscarinic Receptors in Different Regions of the Rat Brain" Proc. Roy. Soc. London (Series B) 207,1.
^3 H-Oxo labels muscarinic receptor in the CNS (with a preference for agonist domains of the receptors). Three different sites are labeled by ^3 H-Oxo. […] Using the present experimental conditions only the high and medium affinity sites are determined.
The inhibitory effects of compounds on ^3 H-oxo binding reflects the affinity for muscarinic acetylcholine receptors.
as §1, with “cortex (0.1-1 g)” for “cortex (0.1-19)”, “rats (150-250” for “rats (150-200”, “5-10 seconds” for “5-10 s”, “[…]” for “20 mM”, “with 10” for “with 2×10”, “in 2×10” for “in 3×10”
The final pellet is homogenized in 20 mM Hepes pH: 7.4 (100 mL per g of original tissue) and used for binding assay. Aliquots of 0.5 mL is added 25 μL of test solution and 25 μL of ^3 H-Oxotremorine (1.0 nM, final concentration) mixed and incubated for 30 min. at 25° C. Non-specific binding is determined in triplicate using arecoline ([…], final concentration) as the test substance. After incubation samples are added 5 mL of ice-cold buffer and poured directly onto Whatman GF/C glass fiber filters under suction and immediately washed 2 times with 5 mL of ice-cold buffer. The amount of radioactivity on the filters are determined by conventional liquid scintillation counting. Specific binding is total binding minus non specific binding.
as §2, with “Test substances are dissolved in 10 mL water (if necessary heated on a steam-bath for less than 5 min.) at a concentration of 2.2 mg/mL. […] The test” for “The test”, “of ^3 H-oxo by 50%).” for “of ^3 HPRZ by 50%).”

[3] = ^3 HPRZ 1.0 nM, rat cortex, 60 min. at 20° C., read-out: ^3 HPRZ IC50 (head from b208 on: Pir IC-50)

Row | pIC50 [1, 3] | SMILES | pIC50 [1] | pIC50 [2]
1 | – | C/C=C/COc1nsnc1OC1CN2CCC1CC2 (mixture of isomers) [Compound 109, (±)-3-(trans-2-butenyloxy)-4-(1-azabicyclo[2.2.2]octyl-3-oxy)-1,2,5-thiadiazole] | 7.23 | 7.91
2 | – | C/C=C\COc1nsnc1OC1CN2CCC1CC2 (mixture of isomers) [Compound 110, (±)-3-(cis-2-butenyloxy)-4-(1-azabicyclo[2.2.2]octyl-3-oxy)-1,2,5-thiadiazole] | 7.30 | 7.88
3 | – | Cl/C=C/COc1nsnc1OC1CN2CCC1CC2 (mixture of isomers) [Compound 120, (±)-3-(trans-3-chloro-2-propenyloxy)-4-(1-azabicyclo[2.2.2]octyl-3-oxy)-1,2,5-thiadiazole] | 7.15 | 7.96
4 | 7.13 | CCCCSc1nsnc1OC1CCCN2CCCC12 (mixture of isomers) [Compound 142, (±)-cis-3-Butylthio-4-(1-azabicyclo[4.3.0]nonyl-5-oxy)-1,2,5-thiadiazole] | – | 7.42
5 | 8.20 | FC(F)(F)CCCOc1nsnc1OC1CC2CCC1NC2 (mixture of isomers) [Compound 160, (±)-exo-3-(4,4,4-Trifluorobutyloxy)-4-(2-azabicyclo[2.2.2]octyl-6-oxy)-1,2,5-thiadiazole] | – | 7.85
6 | 8.28 | CCCCCCOc1nsnc1OC1CC2CCC1NC2 (mixture of isomers) [Compound 161, (±)-exo-3-(Hexyloxy)-4-(2-azabicyclo[2.2.2]octyl-6-oxy)-1,2,5-thiadiazole] | – | 8.17
7 | 6.89 | FC(F)(F)CCCOc1nsnc1OC1CC2CCC1NC2 (mixture of isomers) [Compound 162, (±)-endo-3-(4,4,4-Trifluorobutyloxy)-4-(2-azabicyclo[2.2.2]octyl-6-oxy)-1,2,5-thiadiazole] | – | 6.75
8 | 7.78 | Fc1ccc(OCCSc2nsnc2OC2CC3CCC2NC3)cc1 (mixture of isomers) [Compound 164, (±)-exo-3-(2-[Fluorophenoxy]ethylthio)-4-(2-azabicyclo[2.2.2]octyl-6-oxy)-1,2,5-thiadiazole] | – | 8.28
9 | 7.92 | C1=CC(Oc2nsnc2OC2CN3CCCC2C3)CCC1 (mixture of isomers) [Compound 174, (±)-endo-3-(2-Cyclohexenyloxy)-4-(1-azabicyclo[3.2.1]octyl-6-oxy)-1,2,5-thiadiazole] | – | 8.68
10 | 8.27 | CC(Oc1nsnc1OC1CN2CCCC1C2)C1CC1 (mixture of isomers) [Compound 199, (±)-endo-3-(1-cyclopropylethoxy)-4-(1-azabicyclo[3.2.1]octyl-6-oxy)-1,2,5-thiadiazole] | – | 8.48
11 | 8.37 | C#CC(C)Oc1nsnc1OC1CN2CCCC1C2 (mixture of isomers) [Compound 203, (±)-endo-3-(3-Butyn-2-oxy)-4-(1-azabicyclo[3.2.1]octyl-6-oxy)-1,2,5-thiadiazole] | – | 8.51
12 | – | CCOc1nsnc1OC1CN2CCC1CC2 (racemic) [Compound 6, (±)-3-Ethoxy-4-(1-azabicyclo[2.2.2]octyl-3-oxy)-1,2,5-thiadiazole] | 7.49 | 7.77
13 | – | CCCOc1nsnc1OC1CN2CCC1CC2 (racemic) [Compound 7, (±)-3-propyloxy-4-(1-azabicyclo[2.2.2]octyl-3-oxy)-1,2,5-thiadiazole] | 7.59 | 7.97
14 | – | CCCCOc1nsnc1OC1CN2CCC1CC2 (racemic) [Compound 8, (±)-3-Butyloxy-4-(1-azabicyclo[2.2.2]octyl-3-oxy)-1,2,5-thiadiazole] | 8.13 | 8.51
15 | – | CCCCCOc1nsnc1OC1CN2CCC1CC2 (racemic) [Compound 9, (±)-3-Pentyloxy-4-(1-azabicyclo[2.2.2]octyl-3-oxy)-1,2,5-thiadiazole] | 7.60 | 7.96
16 | – | CCCCCCOc1nsnc1OC1CN2CCC1CC2 (racemic) [Compound 10, (±)-3-Hexyloxy-4-(1-azabicyclo[2.2,2]octyl-3-oxy)-1,2,5-thiadiazole] | 7.66 | 8.21
17 | – | CC(C)CCCOc1nsnc1OC1CN2CCC1CC2 (racemic) [Compound 11, (±)-3-(4-Methylpentyloxy)-4-(1-azabicyclo[2.2.2]octyl-3-oxy)-1,2,5-thiadiazole] | 7.48 | 7.54
18 | – | Clc1nsnc1OC1CN2CCC1CC2 (racemic) [Compound 12, (±)-3-Chloro-4-(1-azabicyclo[2.2.2]octyl-3-oxy)-1,2,5-thiadiazole] | 7.07 | 7.14
19 | – | CCCSc1nsnc1OC1CN2CCC1CC2 (racemic) [Compound 13, (±)-3-Propylthio-4-(1-azabicyclo[2.2.2]octyl-3-oxy)-1,2,5-thiadiazole] | 8.43 | 8.85
20 | – | CCCCSc1nsnc1OC1CN2CCC1CC2 (racemic) [Compound 14, (±)-3-Butylthio-4-(1-azabicyclo[2.2.2]octyl-3-oxy)-1,2,5-thiadiazole] | 8.72 | 8.89
21 | – | CCCCCSc1nsnc1OC1CN2CCC1CC2 (racemic) [Compound 15, (±)-3-Pentylthio-4-(1-azabicyclo[2.2.2]octyl-3-oxy)-1,2,5-thiadiazole] | 8.64 | 8.80
22 | – | CCCCCCSc1nsnc1OC1CN2CCC1CC2 (racemic) [Compound 17, (±)-3-Hexylthio-4-(1-azabicyclo[2.2.2]octyl-3-oxy)-1,2,5-thiadiazole] | 8.06 | 8.28
23 | – | CC(C)(C)CCSc1nsnc1OC1CN2CCC1CC2 (racemic) [Compound 18, (±)-3-(3,3-Dimethylbutylthio)-4-(1-azabicyclo[2.2.2]-octyl-3-oxy)-1,2,5-thiadiazole] | 7.14 | 7.00

Row | SMILES | pIC50 [1, 3] | pIC50 [1] | pIC50 [2]
24 | COc1nsnc1OC1CN2CCC1CC2 (racemic) [Compound 5, (±)-3-Methoxy-4-(1-azabicyclo[2.2.2]octyl-3-oxy)-1,2,5-thiadiazole] | 6.74 | – | 6.79

Source: US5665745A, “Heterocyclic compounds and their preparation and use” (Eli Lilly and Company, priority 1995, dated 1997)
